Assay results as given in ChEMBL document CHEMBL1201862, “PubChem BioAssay data set” (2004).
Values joined by “and” are separate entries in the source; they are usually repeats but may differ in a detail not shown here. Equal entries are not always repeated.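 Values below derive from 48-hour exposures of cells grown in 96-well plates, with endpoints linearly interpolated between the two concentrations bracketing the appropriate inhibition level. GI50 = concentration required for 50% inhibition of growth.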 Active and inactive are the calls of the source. No stated cut-off is given here; in the data, active = GI50 up to about 1.1 µM and inactive = higher.

How the values were obtained:
Experiment in all cases: NCI-60 cell line screen, 48 h
OVCAR-8 = test system: OVCAR-8
786-0 = test system: 786-0
SN12C = test system: SN12C
TK-10 = test system: TK-10
RPMI-8226 = test system: RPMI-8226
SNB-19 = test system: SNB-19
UO-31 = test system: UO-31
HOP-92 = test system: HOP-92
NCI-H226 = test system: NCI-H226
HOP-62 = test system: HOP-62
NCI-H460 = test system: NCI-H460
OVCAR-3 = test system: OVCAR-3
Malme-3M = test system: Malme-3M
CAKI-1 = test system: CAKI-1
KM12 = test system: KM12
HCC 2998 = test system: HCC 2998

Measured: GI50

O=C(c1ccccc1)C1OC12C(=O)Nc1ccccc12 (configuration not stated)
inactive: OVCAR-8 32.5 µM | 786-0 45.7 µM | SN12C 49.4 µM | TK-10 40.3 µM | RPMI-8226 20.7 µM | SNB-19 37.3 µM | UO-31 26.5 µM | HOP-92 20.3 µM | NCI-H226 33.4 µM | HOP-62 62.5 µM | NCI-H460 41.7 µM | OVCAR-3 34.8 µM | Malme-3M 29.6 µM | CAKI-1 20.8 µM

Nc1nnc2c(-c3ccccc3)n[nH]c2n1
inactive: OVCAR-8 49.7 µM | 786-0 62.4 µM | SN12C 63 µM | KM12 23.2 µM | TK-10 23 µM | RPMI-8226 55.3 µM | SNB-19 57.1 µM | UO-31 28.2 µM | HOP-92 12.6 µM | NCI-H226 46 µM | HCC 2998 93.5 µM | NCI-H460 26.3 µM | OVCAR-3 > 100 µM | CAKI-1 17 µM

CSc1nnc2n1-c1ccccc1SCC2
inactive: OVCAR-8 > 100 µM | 786-0 > 100 µM | SN12C > 100 µM | KM12 > 100 µM | TK-10 > 100 µM | RPMI-8226 > 100 µM | SNB-19 > 100 µM | UO-31 > 100 µM | HOP-92 > 100 µM | NCI-H226 > 100 µM | HOP-62 > 100 µM | HCC 2998 > 100 µM | NCI-H460 > 100 µM | OVCAR-3 > 100 µM | Malme-3M > 100 µM

COc1nc(/C=N/NC(N)=S)nc(OC)n1
inactive: OVCAR-8 56.9 µM | 786-0 58.3 µM | SN12C 71.6 µM | KM12 > 100 µM | TK-10 > 100 µM | RPMI-8226 > 100 µM | SNB-19 > 100 µM | UO-31 56.1 µM | HOP-92 > 100 µM | NCI-H226 69.7 µM | HCC 2998 47.1 µM | NCI-H460 43.5 µM | OVCAR-3 > 100 µM | Malme-3M 72.1 µM | CAKI-1 78.5 µM

CCCCCCCCCCCCCP(=O)(O)OCC
inactive: OVCAR-8 > 100 µM | 786-0 > 100 µM | SN12C > 100 µM | KM12 > 100 µM | TK-10 > 100 µM | SNB-19 > 100 µM | UO-31 > 100 µM | HOP-92 > 100 µM | NCI-H226 > 100 µM | HOP-62 > 100 µM | HCC 2998 > 100 µM | NCI-H460 > 100 µM | OVCAR-3 > 100 µM | Malme-3M > 100 µM

CC(C)OP(=S)(NC(=S)c1ccccc1)OC(C)C
inactive: OVCAR-8 > 100 µM | 786-0 > 100 µM | SN12C > 100 µM | KM12 > 100 µM | TK-10 > 100 µM | SNB-19 > 100 µM | UO-31 > 100 µM | HOP-92 > 100 µM | NCI-H226 > 100 µM | HCC 2998 > 100 µM | NCI-H460 59 µM | OVCAR-3 > 100 µM | Malme-3M > 100 µM | CAKI-1 > 100 µM

CC1(C)OC2C(O1)[C@H]1OC(C(Cl)(Cl)Cl)=N[C@H]1C(I)[C@H]2N1C(=O)c2ccccc2C1=O (some centres not stated)
inactive: OVCAR-8 > 100 µM | 786-0 > 100 µM | SN12C 74.8 µM | KM12 49.7 µM | RPMI-8226 32.7 µM | SNB-19 > 100 µM | HOP-92 40.6 µM | NCI-H226 > 100 µM | HOP-62 > 100 µM | NCI-H460 54.6 µM

NCCCC1NC(=O)/C(=C(O)/C=C/C2CCC[C@@H]2CC2SCCS2)C1=O (some centres not stated)
inactive: OVCAR-8 > 100 µM | 786-0 > 100 µM | SN12C > 100 µM | KM12 > 100 µM | TK-10 > 100 µM | RPMI-8226 > 100 µM | SNB-19 > 100 µM | UO-31 > 100 µM | HOP-92 38.3 µM | NCI-H226 71.8 µM | HOP-62 > 100 µM | HCC 2998 > 100 µM | NCI-H460 > 100 µM | OVCAR-3 > 100 µM | Malme-3M > 100 µM

COC(=O)CC(C(C(C)=O)C(=O)OCc1ccccc1)N1C(=O)OC(c2ccccc2)C1c1ccccc1 (configuration not stated)
inactive: OVCAR-8 70.3 µM and 71.1 µM | 786-0 > 100 µM | SN12C > 100 µM | KM12 42 µM and 35.6 µM | TK-10 > 100 µM | RPMI-8226 28.8 µM and 33.5 µM | HOP-62 54.1 µM | HCC 2998 > 100 µM and 89.3 µM | NCI-H460 > 100 µM | OVCAR-3 29.6 µM and 17.4 µM | Malme-3M > 100 µM | CAKI-1 81.1 µM and 83.4 µM

c1ccc2c(CNCCCCCCCCNCc3cccc4ccccc34)cccc2c1
inactive: OVCAR-8 1.86 µM | 786-0 1.73 µM | SN12C 6.43 µM | KM12 1.82 µM | TK-10 1.66 µM | RPMI-8226 1.67 µM | UO-31 1.87 µM | HOP-92 2.49 µM | NCI-H226 11.7 µM | HOP-62 16.4 µM | NCI-H460 1.48 µM | OVCAR-3 10.6 µM | Malme-3M 1.95 µM | CAKI-1 1.98 µM
